These results are taken from BindingDB's records for doi:10.1021/jm015552m (Universita' Degli Studi Di Siena, 2001).

The target of assay [1] is Glutamate receptor 1 (Rattus norvegicus) (UniProt P19490). Description: The potency at recombinant rat AMPA-R was measured on GluR1 receptor expressed in Xenopus Laevis oocytes.
Assay [2] has the same target. Nature of the assay: Binding affinity towards GluR1 receptor from rat brain.

Each structure is given as a SMILES string.

The EC50 is the concentration at which the effect is half-maximal. As usually defined, the Ki is the equilibrium dissociation constant of an inhibitor or competing ligand from its target. Higher therefore signals a looser hold on the target.

Glutamate receptor 1 (Rattus norvegicus), sequence (P19490 whole entry, looked up): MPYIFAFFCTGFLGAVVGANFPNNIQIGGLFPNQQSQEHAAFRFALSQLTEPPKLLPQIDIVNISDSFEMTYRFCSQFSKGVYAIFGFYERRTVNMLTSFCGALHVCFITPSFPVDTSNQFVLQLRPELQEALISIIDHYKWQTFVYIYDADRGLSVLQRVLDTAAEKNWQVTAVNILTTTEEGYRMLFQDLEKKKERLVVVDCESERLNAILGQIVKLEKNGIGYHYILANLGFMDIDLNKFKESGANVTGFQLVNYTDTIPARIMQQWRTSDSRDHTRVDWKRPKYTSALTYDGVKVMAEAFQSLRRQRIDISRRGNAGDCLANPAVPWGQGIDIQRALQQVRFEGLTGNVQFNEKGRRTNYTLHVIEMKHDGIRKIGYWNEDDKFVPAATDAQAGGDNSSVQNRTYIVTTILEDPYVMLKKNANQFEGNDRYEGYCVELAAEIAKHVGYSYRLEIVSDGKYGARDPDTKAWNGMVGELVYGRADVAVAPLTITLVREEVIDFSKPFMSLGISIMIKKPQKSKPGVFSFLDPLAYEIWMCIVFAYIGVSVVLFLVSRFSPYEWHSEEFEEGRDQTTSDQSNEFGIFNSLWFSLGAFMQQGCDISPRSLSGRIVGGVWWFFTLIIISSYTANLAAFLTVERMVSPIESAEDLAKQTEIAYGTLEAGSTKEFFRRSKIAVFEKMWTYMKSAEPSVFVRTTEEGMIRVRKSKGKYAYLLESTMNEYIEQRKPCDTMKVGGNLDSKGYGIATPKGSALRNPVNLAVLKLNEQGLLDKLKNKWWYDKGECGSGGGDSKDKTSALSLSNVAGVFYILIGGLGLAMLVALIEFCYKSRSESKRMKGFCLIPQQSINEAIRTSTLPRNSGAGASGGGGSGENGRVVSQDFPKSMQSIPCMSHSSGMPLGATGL

In the case of `N[C@@H](Cn1c2c(c(=O)[nH]c1=O)CCC2)C(=O)O` [2-Amino-3-(2,4-dioxo-2,3,4,5,6,7-hexahydro-cyclopentapyrimidin-1-yl)-propionic acid], the 50% effective concentration (EC50) in assay [1] was determined as 24.9 µM. The same molecule registered a Ki in assay [2] of 0.109 µM.
